According to patent US5663148A, “Anaphylatoxin receptor ligands containing lipophilic residues” (Abbott Laboratories, priority 1994, dated 1997):
pKi: −log10 of the molar value. *1 amine or outer side, *2 acyl side, *3 side chain or, on linkers, in order; H or OH if unused. Where a SMILES comes first, the peptide text is derived from it. [ ]: non-standard residue; d: D form. The star is where a group is joined. ξ: configuration not given here. Gly(N(CH2)2(3-indolyl)) = O=C(O)CNCCc1c[nH]c2ccccc12; X11 = O=C([C@H](CC1CCCCC1)N(CCCc1ccccc1)[*:1])[*:2]; X13 = O=C([C@H](CC1CCCCC1)N(CCc1ccccc1)[*:1])[*:2]; X5 = O=C([C@H](CC1CCCCC1)N(Cc1ccccc1)[*:1])[*:2]; X9 = CN(CCCc1ccccc1)[C@@H](CC1CCCCC1)C(=O)*; d(hhPhe) = N[C@H](CCCc1ccccc1)C(=O)O; X4 = O=C(C=Cc1ccccc1[N+](=O)[O-])*; Hydrocinnamoyl = O=C(CCc1ccccc1)*; hPhe = N[C@@H](CCc1ccccc1)C(=O)O; Cha = N[C@@H](CC1CCCCC1)C(=O)O; ξhhPhe = NC(CCCc1ccccc1)C(=O)O; X6 = O=C(c1cc2ccccc2[nH]1)*; 3Amb = NCc1cccc(C(=O)O)c1; X1 = O=C(CC1CNc2ccccc21)*; X7 = O=C(C(O)CC1CCCCC1)*; X3 = Nc1ccccc1C=CC(=O)*; PhAc = O=C(Cc1ccccc1)*; Ahp = NCCCCCCC(=O)O; X12 = CC(c1ccccc1)*; Ahx = NCCCCCC(=O)O; Bn = c1ccc(C*)cc1

Target: T1, C5a receptor (Homo sapiens, UniProt P21730)
T1 construct: from tissue; host or cells: polymorphonuclear leukocyte (PMNL) membrane fragments
T1 sequence (P21730 1-350): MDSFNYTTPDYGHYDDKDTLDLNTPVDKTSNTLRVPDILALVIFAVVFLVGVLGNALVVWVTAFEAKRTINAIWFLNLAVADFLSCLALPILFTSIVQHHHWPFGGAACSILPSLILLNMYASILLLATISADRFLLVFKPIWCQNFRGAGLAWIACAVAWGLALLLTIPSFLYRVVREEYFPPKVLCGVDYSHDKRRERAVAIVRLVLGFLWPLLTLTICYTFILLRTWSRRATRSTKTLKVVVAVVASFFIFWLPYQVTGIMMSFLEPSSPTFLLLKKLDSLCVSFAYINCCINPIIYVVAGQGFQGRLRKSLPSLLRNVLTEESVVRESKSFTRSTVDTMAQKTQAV
Experiment: Anaphylatoxin (C5a) receptor binding Ki determination, 125I-C5a on PMNL membrane fragments
Details: read-out: Ki (In vitro C5a Receptor Binding Potency)
Description: The membrane-bound radiolabeled C5a was separated from the free radiolabeled C5a by filtration, and the recovered gamma radioactivity was measured. […] Free and membrane-bound ligand were separated by filtration.

Compound | pKi
CC(C)C[C@H](NC(=O)CNC(=O)[C@H](CC1CCCCC1)N(Cc1ccccc1)C(=O)CCCCCCN)C(=O)N[C@H](CCCc1ccccc1)C(=O)N[C@@H](CCCNC(=N)N)C(=O)O [Example 64, N-(7-Aminoheptanoyl)-{(2S)-2-Amino-3-cyclohexylpropanoyl}(N-Benzyl)-Glycyl-Leucyl-{(R)-2-Amino-5-phenylpentanoyl}-Arginyl-OH] (H-[Ahp][X5]GL[d(hhPhe)]R-OH) | 6.33
C[C@H](NC(=O)CNC(=O)[C@H](CC1CCCCC1)NC(=O)CCCCCN)C(=O)NC(CCCc1ccccc1)C(=O)N[C@@H](CCCNC(=N)N)C(=O)O (stereo partly drawn) [Example 74, N-(6-Aminohexanoyl)-{(2S)-2-Amino-3-cyclohexylpropanoyl}-Glycyl-Alanyl-{(+)-2-Amino-5-phenylpentanoyl}-Arginyl-OH] (H-[Ahx][Cha]GA[ξhhPhe]R-OH) | 4.04
CC(C)C[C@H](NC(=O)CNC(=O)[C@H](CC1CCCCC1)NCCCc1ccccc1)C(=O)N[C@H](CCCc1ccccc1)C(=O)N[C@@H](CCCNC(=N)N)C(=O)O [Example 77, N-(3-Phenylpropyl)-{(2S)-2-Amino-3-cyclohexylpropanoyl}-Glycyl-Leucyl-{(R)-2-Amino-5-phenylpentanoyl}-Arginyl-OH] (H-[X11]GL[d(hhPhe)]R-OH) | 7.30
CC(C)C[C@H](NC(=O)CNC(=O)[C@H](CC1CCCCC1)NCCc1ccccc1)C(=O)N[C@H](CCCc1ccccc1)C(=O)N[C@@H](CCCNC(=N)N)C(=O)O [Example 78, N-(2-Phenethyl)-{(2S)-2-Amino-3-cyclohexylpropanoyl}-Glycyl-Leucyl-{(R)-2-Amino-5-phenylpentanoyl}-Arginyl-OH] (H-[X13]GL[d(hhPhe)]R-OH) | 7.15
CC(C)C[C@H](NC(=O)CNCCc1c[nH]c2ccccc12)C(=O)N[C@H](CCCc1ccccc1)C(=O)N[C@@H](CCCNC(=N)N)C(=O)O [Example 79, N-[(Indol-3-yl)ethyl]-Glycyl-Leucyl-{(R)-2-Amino-5-phenylpentanoyl}-Arginyl-OH] (H-[Gly(N(CH2)2(3-indolyl))]L[d(hhPhe)]R-OH) | 6.41
CC(C)C[C@H](NC(=O)CNC(=O)CC1CNc2ccccc21)C(=O)N[C@H](CCCc1ccccc1)C(=O)N[C@@H](CCCNC(=N)N)C(=O)O (stereo partly drawn) [Example 80, N-[(Indoline-3-yl)acetyl]-Glycyl-Leucyl-{(R)-2-Amino-5-phenylpentanoyl}-Arginyl-OH] (X1-GL[d(hhPhe)]R-OH) | 6.06
CC(C)C[C@H](NC(=O)[C@H](C)NC(=O)[C@H](CC1CCCCC1)NC(=O)[C@@H]1CCCN1C(=O)CCCCCN)C(=O)NC(CCCc1ccccc1)C(=O)N[C@@H](CCCNC(=N)N)C(=O)O (stereo partly drawn) [Example 81, N-(6-Aminohexanoyl)-Prolyl-{(2S)-2-Amino-3-cyclohexylpropanoyl}-Alanyl-Leucyl-{(+)-2-Amino-5-phenylpentanoyl}-Arginyl-OH] (H-[Ahx]P[Cha]AL[ξhhPhe]R-OH) | 6.96
CC(C)C[C@H](NC(=O)CNC(=O)[C@@H](N)CSCc1ccccc1)C(=O)N[C@H](CCCc1ccccc1)C(=O)N[C@@H](CCCNC(=N)N)C(=O)O [Example 90, H-Cysteinyl(S-benzyl)-Glycyl-Leucyl-{(R)-2-Amino-5-phenylpentanoyl}-Arginyl-OH] (H-C(Bn)GL[d(hhPhe)]R-OH) | 6.74
CC(C)C[C@H](NC(=O)CNC(=O)[C@@H](N)CSC(C)c1ccccc1)C(=O)N[C@H](CCCc1ccccc1)C(=O)N[C@@H](CCCNC(=N)N)C(=O)O (stereo partly drawn) [Example 91, H-Cysteinyl(S-1-phenethyl)-Glycyl-Leucyl-{(R)-2-Amino-5-phenylpentanoyl}-Arginyl-OH] (H-C(X12)GL[d(hhPhe)]R-OH) | 6.41
CC(C)C[C@H](NC(=O)CNC(=O)CCc1ccccc1)C(=O)N[C@H](CCCc1ccccc1)C(=O)N[C@@H](CCCNC(=N)N)C(=O)O [Example 92, N-(3-Phenylpropanoyl)-Glycyl-Leucyl-{(R)-2-Amino-5-phenylpentanoyl}-Arginyl-OH] (Hydrocinnamoyl-GL[d(hhPhe)]R-OH) | 6.12
CC(C)C[C@H](NC(=O)CNC(=O)Cc1ccccc1)C(=O)N[C@H](CCCc1ccccc1)C(=O)N[C@@H](CCCNC(=N)N)C(=O)O [Example 93, N-Phenylacetyl-Glycyl-Leucyl-{(R)-2-Amino-5-phenylpentanoyl}-Arginyl-OH] (PhAc-GL[d(hhPhe)]R-OH) | 6.77
CC(C)C[C@H](NC(=O)CNC(=O)[C@H](CC1CCCCC1)N(C)CCCc1ccccc1)C(=O)N[C@H](CCCc1ccccc1)C(=O)N[C@@H](CCCNC(=N)N)C(=O)O [Example 103, N-(3-Phenylpropyl)-N-methyl-{(2S)-2-Amino-3-cyclohexylpropanoyl}-Glycyl-Leucyl-{(R)-2-Amino-5-phenylpentanoyl}-Arginyl-OH] (X9-GL[d(hhPhe)]R-OH) | 5.88
CC(C)C[C@H](NC(=O)CNC(=O)C=Cc1ccccc1N)C(=O)N[C@H](CCCc1ccccc1)C(=O)N[C@@H](CCCNC(=N)N)C(=O)O [Example 106, N-(2-Aminocinnamoyl)-Glycyl-Leucyl-{(R)-2-Amino-5-phenylpentanoyl}-Arginyl-OH] (X3-GL[d(hhPhe)]R-OH) | 6.39
CC(C)C[C@H](NC(=O)CNC(=O)C=Cc1ccccc1[N+](=O)[O-])C(=O)N[C@H](CCCc1ccccc1)C(=O)N[C@@H](CCCNC(=N)N)C(=O)O [Example 107, N-(2-Nitrocinnamoyl)-Glycyl-Leucyl-{(R)-2-Amino-5-phenylpentanoyl}-Arginyl-OH] (X4-GL[d(hhPhe)]R-OH) | 7.06
CC(C)C[C@H](NC(=O)[C@H](C)NC(=O)[C@H](CC1CCCCC1)NC(=O)[C@@H]1CCCN1C(=O)[C@H](CCCCN)NC(=O)CN)C(=O)N[C@@H](CSCc1ccccc1)C(=O)N[C@@H](CCCNC(=N)N)C(=O)O [Example 108, H-Glycyl-Lysyl-Prolyl-{(2S)-2-Amino-3-cyclohexylpropanoyl}-Alanyl-Leucyl-Cysteinyl(S-benzyl)-Arginyl-OH] (H-GKP[Cha]ALC(Bn)R-OH) | 5.32
N=C(N)NCCC[C@H](NC(=O)C(CCCc1ccccc1)NC(=O)c1cccc(CNC(=O)[C@H](CC2CCCCC2)NC(=O)[C@@H]2CCCN2C(=O)CCCCCN)c1)C(=O)O (stereo partly drawn) [Example 109, N-(6-Aminohexanoyl)-Prolyl-{(2S)-2-Amino-3-cyclohexylpropanoyl}-(3-Aminomethylbenzoyl)-{(+)-2-Amino-5-phenylpentanoyl}-Arginyl-OH] (H-[Ahx]P[Cha][3Amb][ξhhPhe]R-OH) | 5.32
CC(C)C[C@H](NC(=O)CNC(=O)[C@@H](N)Cc1ccccc1)C(=O)N[C@H](CCCc1ccccc1)C(=O)N[C@@H](CCCNC(=N)N)C(=O)O [Example 116, H-Phenylalanyl-Glycyl-Leucyl-{(R)-2-Amino-5-phenylpentanoyl}-Arginyl-OH] (H-FGL[d(hhPhe)]R-OH) | 6.20
CC(C)C[C@H](NC(=O)CNC(=O)[C@@H](N)CCc1ccccc1)C(=O)N[C@H](CCCc1ccccc1)C(=O)N[C@@H](CCCNC(=N)N)C(=O)O [Example 117, H-{(S)-2-Amino-4-phenylbutyryl}-Glycyl-Leucyl-{(R)-2-Amino-5-phenylpentanoyl}-Arginyl-OH] (H-[hPhe]GL[d(hhPhe)]R-OH) | 6.43
CC(C)C[C@H](NC(=O)CNC(=O)[C@@H](N)Cc1c[nH]c2ccccc12)C(=O)N[C@H](CCCc1ccccc1)C(=O)N[C@@H](CCCNC(=N)N)C(=O)O [Example 130, H-Tryptophanyl-Glycyl-Leucyl-{(R)-2-Amino-5-phenylpentanoyl}-Arginyl-OH] (H-WGL[d(hhPhe)]R-OH) | 6.85
CC(C)C[C@H](NC(=O)CNC(=O)c1cc2ccccc2[nH]1)C(=O)N[C@H](CCCc1ccccc1)C(=O)N[C@@H](CCCNC(=N)N)C(=O)O [Example 131, N-[(Indol-2-yl)-carbonyl]-Glycyl-Leucyl-{(R)-2-Amino-5-phenylpentanoyl}-Arginyl-OH] (X6-GL[d(hhPhe)]R-OH) | 6.25
CC(C)C[C@H](NC(=O)CNC(=O)C(O)CC1CCCCC1)C(=O)N[C@H](CCCc1ccccc1)C(=O)N[C@@H](CCCNC(=N)N)C(=O)O (stereo partly drawn) [Example 132, N-(3-Cyclohexyl-2-hydroxypropionyl)-Glycyl-Leucyl-{(R)-2-Amino-5-phenylpentanoyl}-Arginyl-OH] (X7-GL[d(hhPhe)]R-OH) | 6.38
